Results published in PMC8587015, “AGSE: A Novel Grape Seed Extract Enriched for PP2A Activating Flavonoids That Combats Oxidative Stress and Promotes Skin Health” (Molecules, 2021).
Converted amounts (≈) assume the structure as drawn. Values belong to the molecule of their own block, whether it stands above or below them.

How the values were obtained:
[1] = tested on: NHEK-TPA-IL-8; test: TPA-induced IL-8 release from NHEKs (ELISA); format: cell-based, human; settings: 5 ng/mL TPA, 24 h
Experimental: (§1) Primary normal human epidermal keratinocytes (NHEKs) and dermal fibroblasts (NHDFs) were purchased from ThermoFisher (Carlsbad, CA, USA) and cultured in EpiLife™ medium (NHEKs) supplemented with Human Keratinocyte Growth Supplement (HKGS) or DMEM (NHDFs) + 10% FBS. All cell types were seeded in plates with growth factor-supplemented medium for 24 h and later media was replaced with growth factor-depleted media for an additional 24 h before treatments and grown at normal conditions (5% CO2; 37 °C).
Cells were pre-incubated for 2–6 h with test materials (1% v/v ethanol vehicle) in fresh growth factor-depleted media in triplicates. NHEKs were induced by 5 ng/mL TPA for 24 h or irradiated with 25 mJ/cm^2 (15 s) broadband 305–12 nm UVB (Daavlin; Bryan, OH, USA) without test materials and incubated for an additional 18 h. NHDFs were irradiated with 12.5 J/cm^2 UVA (350–12 nm; 40 min) and later incubated without test materials for an additional 18 h. […]
Statistical significance was determined by ANOVA followed by a Dunnett multiple comparisons test using p-values less than 0.05 as a significant difference. […] Cytokine dose–response curves were generated by fitting data with the Hill, three-parameter equation using the Sigma Plot software, from which the IC50 and maximum inhibition were determined.

[2] = tested on: NHDFs-UVA-IL-6; test: UVA-induced IL-6 release from NHDFs (ELISA); format: cell-based, human
Experimental: as §1
(§2) Cells were pre-incubated for 2–6 h with test materials (1% v/v ethanol vehicle) in fresh growth factor-depleted media in triplicates. NHEKs were induced by 5 ng/mL TPA for 24 h or irradiated with 25 mJ/cm^2 (15 s) broadband 305–12 nm UVB (Daavlin; Bryan, OH, USA) without test materials and incubated for an additional 18 h. NHDFs were irradiated with 12.5 J/cm^2 UVA (350–12 nm; 40 min) and later incubated without test materials for an additional 18 h. Media supernatants were harvested after induction and used to measure levels of Interleukin-6 (IL-6), Interleukin-8 (IL-8), collagenase (pro-MMP1) or tumor necrosis factor-α (TNF-α) by sandwich ELISA kits (BD Biosciences; San Jose, CA, USA or R&D Systems; Minneapolis, MN, USA). Cells were subjected to viability tests by MTS reduction assay (Promega; Madison, WI, USA).
(§3) Statistical significance was determined by ANOVA followed by a Dunnett multiple comparisons test using p-values less than 0.05 as a significant difference. For all biochemical measurements and cytokine levels, samples were assayed in triplicate. Cytokine dose–response curves were generated by fitting data with the Hill, three-parameter equation using the Sigma Plot software, from which the IC50 and maximum inhibition were determined.

[3] = tested on: NHEK-UVB-TNFα; test: UVB-induced TNFα release from NHEKs (ELISA); format: cell-based, human
Experimental: as §1, §2, §3

[4] = tested on: NHEK-UVB-IL-8; test: UVB-induced IL-8 release from NHEKs (ELISA); format: cell-based, human
Experimental: as §1, §2, §3

[5] = tested on: NHDFs intracellular ROS; test: Intracellular antioxidant assay (DCFH-DA) in NHDFs after H2O2 induction; format: cell-based, human; settings: 3 h pre-incubation
Source text: (§4) Radical scavenging antioxidant assay was estimated using the colorimetric antioxidant assay kit obtained from Cayman Chemical Company (Ann Arbor, MI, USA). ABTS (2, 2′-Azino-bis-[3-ehthylbenzthiazoline sulphonate]) was used as the chromogen, which changes into a colored monocation radical form (ABTS^•+) by metmyoglobin in the presence of hydrogen peroxide, and monitored by measuring absorption at 750 nm using a plate reader (Envision-PerkinElmer; Waltham, MA, USA). Antioxidant inhibition was calculated based on the discoloration of ABTS by serial concentrations of test compounds added simultaneously with myoglobin and hydrogen peroxide. NHDF cells were cultured in DMEM with 10% fetal bovine serum (FBS) and seeded into black wall 96-well plates and incubated for 24 h before treatment. Cells were pre-treated for 3 h with and without test compounds (0.01–3 µM final concentrations) and labeled with 50 µM of dichloro-dihydro-fluorescein diacetate (DCFH-DA). Total fluorescence (Excitation = 485 nm; Emission = 535 nm) was measured after cells were co-incubated for 20 min with 0.1 mM H2O2 and the test compounds. Cell protection against oxidative stress was calculated using the following formula: Cell protection (%) = [(test compound (%) − hydrogen peroxide-only (%))/([…] − untreated control (%))] × 100.

[6] = Cell-free antioxidant ABTS assay by metmyoglobin; format: biochemical
Source text: as §4

[7] = target: T1, PME-1 (Protein phosphatase methylesterase 1) (Homo sapiens, UniProt Q9Y570); test: Demethylation of PP2A by PME-1, radioactive filter binding assay; format: biochemical; settings: GSE flavonoids / grape seed components; read-out: IC50, PP2A demethylation activity assay
T1 sequence (Q9Y570 1-386): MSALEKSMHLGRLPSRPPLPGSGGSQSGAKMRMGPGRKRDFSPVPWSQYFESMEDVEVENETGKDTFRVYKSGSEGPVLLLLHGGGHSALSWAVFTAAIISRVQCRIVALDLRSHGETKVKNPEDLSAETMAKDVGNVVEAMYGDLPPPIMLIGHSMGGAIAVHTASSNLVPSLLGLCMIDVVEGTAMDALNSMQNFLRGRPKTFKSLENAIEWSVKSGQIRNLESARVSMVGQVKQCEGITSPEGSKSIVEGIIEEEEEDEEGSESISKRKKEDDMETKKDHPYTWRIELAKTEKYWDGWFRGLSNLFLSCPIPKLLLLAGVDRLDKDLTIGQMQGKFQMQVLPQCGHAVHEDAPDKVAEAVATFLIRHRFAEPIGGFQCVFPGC
Experimental: [^3H]-labeled methylated PP2A AC dimer was prepared by incubating PP2A, LCMT1 and [^3H]-SAM (PerkinElmer; Waltham, MA, USA) in 50 mM MOPS-Na (pH 7.2), 5 mM MgCl2, and 1 mM DTT at room temperature for 1 h. Demethylation of PP2A by PME-1 (Protein phosphatase methylesterase 1) was measured using the radioactive filter binding assay format. 20 nM PME-1 was incubated for 15 min with extract or compound, then 20 nM of [^3H]-labeled methylated PP2A AC dimer was added. Reactions were run at room temperature for 30 min then applied to a 96-well filter plate (MilliporeSigma; Burlington, MA, USA.) containing 30% TCA where proteins were precipitated and separated from the excess of [^3H]-SAM by washing with 70% ethanol. [^3H]-incorporation was measured using TopCount NXT scintillation counter (PerkinElmer; Waltham, MA, USA). IC50 values were generated from dose–response curves using a four-parameter logistic curve fit in SigmaPlot (Systat Software, Inc., Palo Alto, CA, USA).

[8] = Homo sapiens, NHEK, light or radiation study, UVB 25 mJ/cm^2

IC50 NHEK-TPA-IL-8 [1]: 0.0005 ng/mL (≈ 1.22e-06 µM)
SMILES: C[C@H]1C[C@H]2[C@@H]3CCC4=CC(=O)C=C[C@]4(C)[C@@]3(F)[C@@H](O)C[C@]2(C)[C@@]1(O)C(=O)CCl [Clobetasol]

IC50 ([2]; Homo sapiens, NHDF, light or radiation study, UVA 12.5 J/cm^2): > 1 µg/mL
IC50 [3, 8]: > 1 µg/mL
IC50 [4, 8]: > 1 µg/mL
SMILES: CC1=C(/C=C/C(C)=C/C=C/C(C)=C/C(=O)O)C(C)(C)CCC1 [ATRA, all-trans retinoic acid]
effect on UVA-induced IL-6 release (in words) ([2]; highest non-toxic dose tested): did not have any effect
effect on UVB-induced TNFα release (in words) ([3]; highest non-toxic dose tested): did not have any effect
effect on UVB-induced IL-8 release (in words) ([4]; highest non-toxic dose tested): did not have any effect

IC50, intracellular oxidative stress [5]: 0.6 µg/mL (≈ 3.41 µM)
IC50 NHDFs-UVA-IL-6 ([2]; UVA 12.5 J/cm^2): >10 µg/mL
IC50 NHEK-UVB-TNFα ([3]; UVB 25 mJ/cm^2): >10 µg/mL
IC50, H2O2-induced free radical ROS production [6]: 10.1 µg/mL (≈ 57.3 µM)
IC50 NHEK-UVB-IL-8 ([4]; UVB 25 mJ/cm^2): >10 µg/mL
SMILES: O=C1O[C@H]([C@@H](O)CO)C(O)=C1O [Vitamin C]

IC50 NHDFs-UVA-IL-6 ([2]; UVA 12.5 J/cm^2): 0.01 µg/mL (≈ 0.0515 µM)
IC50 NHEK-UVB-TNFα ([3]; UVB 25 mJ/cm^2): <0.01 µg/mL
IC50 NHEK-UVB-IL-8 ([4]; UVB 25 mJ/cm^2): <0.01 µg/mL
IC50 [7]: > 15 µM
SMILES: COc1cc(/C=C/C(=O)O)ccc1O [Ferulic acid]

IC50 ([5]; Homo sapiens, NHDF, read-out: IC50, intracellular oxidative stress): > 100 µg/mL
IC50, H2O2-induced free radical ROS production [6]: 18.6 µg/mL (≈ 43.2 µM)
SMILES: Cc1c(C)c2c(c(C)c1O)CC[C@@](C)(CCC[C@H](C)CCC[C@H](C)CCCC(C)C)O2 [Vitamin E, α-tocopherol]
